Laboratory results: patent US7326809B2, “Salts of 4- or 5-aminosalicylic acid” (Antibe Therapeutics Inc., priority 2004, dated 2008)
Counter-ions that a name gives are not always drawn. Like-named read-outs stand apart in the source and are kept apart here.

Columns and labels:
TNBS-induced colitis [1] = assay: TNBS-induced colitis in rats: edema, MPO activity, body weight; type: in vivo, male, Wistar rats; settings: every 12 h for 4 days, salt at 50% of the dose equimolar to mesalamine 50 mg/kg
Protocol: Colitis was induced in male, Wistar rats by intracolonic administration of TNBS, as outlined in Wallace et al. (1990), Am J Physiol. 258: G527-G534, incorporated herein by reference. Briefly, beginning 1 h later and continuing at 12 h intervals for 4 days, the rats were treated with vehicle (1% CMC), mesalamine (50 mg/kg), L-arginine (equimolar) or L-arginine salt of mesalamine (50% of the equimolar dose). Changes in body weight were recorded, as were incidences of mortality. At the end of the study, the colon was excised and the thickness of the bowel wall was measured with digital callipers, as an index of edema. Also, a sample of tissue was processed for measurement of myeloperoxidase (MPO) activity, as an index of granulocyte infiltration.

[2] = In vitro anti-oxidant assay with a coloured, stable free radical; type: biochemical; settings: for % Free Radical Scavenging: in ethanol, means of quadruplicate experiments; for IC50: concentration that reduced the levels of the free radical by 50%, read-out: 50% Inhibitory Concentrations IC50
Protocol: One of the mechanisms through which mesalamine is thought to provide benefit in the treatment of inflammatory bowel disease is through scavenging of free radicals. Therefore, the anti-oxidant activity of mesalamine was compared to that of L-arginine salt of mesalamine and L-arginine. Anti-oxidant activity of the test drugs was measured in an in vitro assay that employs a coloured, stable free radical as outlined in Vaananen, P. M. et al. (1992) Inflammation 16: 227-240 and Smith, R. C. et al. (1987) Free Rad. Biol. Med. 3: 251-257, both incorporated herein by reference. Drugs with anti-oxidant activity reduce this reagent resulting in a change in colour, which can be detected spectrophotometrically. A range of concentrations of L-arginine salt of mesalamine, mesalamine and L-arginine, all prepared in ethanol, were tested and the concentration that reduced the levels of the free radical by 50% were calculated.

TNBS-induced colitis [3] = assay: TNBS-induced colitis in mice: disease activity score and MPO activity; type: in vivo, Balb/c mice; settings: oral every 12 h for 5 days, dose equimolar to mesalamine 50 mg/kg
Protocol: A standard experimental animal model of colitis induced by intracolonic administration of 2,4,6-trinitrobenzene sulfonic acid (TNBS) to mice is used in the following example. A detailed description of this model has been published (Santucci et al. (2003) Gastroenterology 124:1381-94) and is incorporated herein by reference. Briefly, 6-8 week old Balb/c mice were given TNBS intracolonically at a dose of 1.5 mg in 0.1 mL of 30% ethanol. The mice were randomized to the various treatment groups (n=6 per group). Beginning one hour later and continuing every 12 h for 5 days, the mice were treated orally with vehicle (1% carboxymethylcellulose (CMC)), mesalamine (50 mg/kg) or with an equimolar dose of L-arginine salt of mesalamine.
The mice were evaluated (blindly) on the final day of the study for the presence of diarrhea and fecal occult blood, and their body weights were measured. […] The mice were then sacrificed and a sample of the colon was excised for measurement of myeloperoxidase (MPO) activity, an indicia for granulocyte infiltration.

[4] = test system: TNF-α, IFN-γ, IL-1, IL-2, IL-10, IL-12 p40, RANTES, COX-1, COX-2, eNOS, iNOS mRNA; assay: mRNA expression (RT-PCR) of inflammatory cytokines and mediators in colon, TNBS-induced colitis in mice; type: in vivo; settings: equimolar to mesalamine 50 mg/kg
Protocol: The same model was used as described above. In this example, the effects of mesalamine (50 mg/kg) were compared to those of equimolar doses of L-arginine salt of mesalamine. Tissues were processed for measurement of a number of genes for inflammatory cytokines and other mediators.
In particular, mRNA expression in mice of tumour necrosis factor-alpha (TNF-α), interferon gamma (IFN-γ), colonic interleukin (IL)-1, IL-2, IL-10, IL-12 p40, RANTES, cyclooxygenase (COX)-1, COX-2, constitutive endothelial nitric oxide synthase (eNOS), and inducible NOS (iNOS) was measured as described in Wallace et al. (1999) Gastroenterology 117: 557-566, incorporated herein by reference.
Briefly, reverse transcription-polymerase chain reaction (RT-PCR) was used to detect and quantify mRNA of the particular cytokine/chemokine/enzyme. Glyceraldehyde-3-phosphate dehydrogenase (GAPDH) was used as the “housekeeping gene” for mRNA expression (i.e., as an internal control). For each sample, the ratio of the amplification of the target gene to the amplification of GAPDH (expression of each is measured by performing densitometry on gels) was obtained. Comparisons were then made between the relative amplification (expression) of the target gene in tissues for the treatment groups in comparison to the expression in tissues from healthy controls. Thus, the data shown in the following FIGS. represent the relative expression of the target gene (normalized to GAPDH expression) as a ratio to the expression in healthy controls.

[5] = following oral ingestion of 500 mg; cited from earlier work

Row | SMILES | % Free Radical Scavenging ([2]; 0.03 mM) [%] | % Free Radical Scavenging ([2]; 0.1 mM) [%] | % Free Radical Scavenging ([2]; 0.3 mM) [%] | % Free Radical Scavenging ([2]; 1 mM) [%] | % Free Radical Scavenging ([2]; 3 mM) [%] | % Free Radical Scavenging ([2]; 10 mM) [%] | IC50 [2] [mM] | other results
1 | N=C(N)NCCC[C@H](N)C(=O)O.Nc1ccc(O)c(C(=O)O)c1 [L-arginine salt of mesalamine, L-arginine salt of 5-aminosalicylic acid] | 5.2 | 23.9 | 57.7 | 96.3 | 100 | 100 |  | body weight loss (TNBS-induced colitis [1]): superior to both mesalamine and L-arginine; colitis-associated edema (thickness of the bowel wall) (TNBS-induced colitis [1]): superior to both mesalamine and L-arginine; myeloperoxidase (MPO) activity (granulocyte infiltration) (TNBS-induced colitis [1]): superior to both mesalamine and L-arginine; anti-oxidant potency relative to mesalamine ([2]; from IC50 values): about three-times more potent; myeloperoxidase (MPO) activity (granulocyte infiltration) (TNBS-induced colitis [3]; colon sample): superior to mesalamine alone in reducing MPO activity; disease activity score (TNBS-induced colitis [3]; 0 to 4 scale): superior to mesalamine alone in reducing the disease; COX-1 mRNA expression ([4]; colonic): suppressed; COX-2 mRNA expression ([4]; colonic): suppressed; eNOS mRNA expression ([4]; colonic): suppressed; iNOS mRNA expression ([4]; colonic): suppressed; IL-10 mRNA expression [4]: did not suppress; expression of mRNA for several pro-inflammatory cytokines and chemokines [4]: suppressed; mRNA expression of inflammatory cytokines and other mediators, every endpoint (FIGS. 3 to 8) ([4]; normalized to GAPDH, ratio to healthy controls): superior to mesalamine in every endpoint
2 | Nc1ccc(O)c(C(=O)O)c1 [L-arginine salt of mesalamine, L-arginine salt of 5-aminosalicylic acid] |  |  |  |  |  |  |  | IC50 ([2]; listed as ATB-428): 0.407 mM
3 | Nc1ccc(O)c(C(=O)O)c1 [Mesalamine, 5-aminosalicylic acid] | 2.2 |  | 23.6 | 50.3 | 96.1 | 100 | 1.25 | luminal concentrations of mesalamine in the colon [5]: 1 mM
4 | N=C(N)NCCC[C@H](N)C(=O)O [L-arginine] | 0 | 0 | 0 | 0 | 0 | 0 | > 10 | anti-oxidant activity ([2]; concentrations of up to 10 mM): did not exhibit any anti-oxidant activity; anti-oxidant activity (in words) ([2]; summary statement): very little anti-oxidant activity; free radical scavenging effects (in words) ([2]; summary statement): no free radical scavenging effects
